ChEMBL document CHEMBL1201862, “PubChem BioAssay data set” (2004)
Calls of active or inactive are those of the source.

How the values were obtained:
[1] = molecular target: Ras and Rab interactor 1/Tyrosine-protein kinase ABL1 (Homo sapiens, UniProt P00519+Q13671); type: functional;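 further: biochemical TR-FRET dose-response test measuring inhibition of binding between Rin1 and Abl proteins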
[2] = blockade of melanocortin 4 receptor signaling – cell-based, plate reader, cherry pick, counter-screen for LGR2 antagonist project, dose response (AID 743444); type: functional;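 further: transfected HEK 293 cells stimulated with alpha-MSH peptide; potency of inhibitors of the alpha-MSH evoked signal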
[3] = blockers of bursicon-stimulated LGR2 cAMP reporter – cell-based, HEK293, CRE-luciferase reporter, cherry pick, set 2, dose response (AID 743343); type: functional;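 further: transfected cells were stimulated with diluted bursicon conditioned medium after compound addition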
[4] = non-specific 3'UTR reporter inhibition in Clone20-Shn3RL – cell-based, Renilla luciferase, cherry-picked, counter-screen for Shn3 inhibitor project, dose response (AID 624133); type: functional
[5] = reduction of Shn3 3'UTR-driven luciferase in osteoblasts – cell-based, Clone20 osteoblasts, firefly luciferase, cherry-picked, dose response (AID 624132); type: functional;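 further: firefly luciferase luminescence from reporter carrying the Shn3 3'UTR in osteoblasts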
[6] = tested on: INS1; experiment: INS-1E survival protection against cytokine death – cell-based, luminescence, retest, dose response (AID 449756); type: functional; settings: Rattus norvegicus;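 further: cell death triggered by IL-1 beta plus TNF-alpha plus IFN-gamma mixture; protective hits raise ATP signal compared with cytokine alone wells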
[7] = molecular target: T1, Carboxy-terminal domain RNA polymerase II polypeptide A small phosphatase 1 (Homo sapiens, UniProt Q9GZU7); experiment: CTDSP1 inhibitors, concentration-response, biochemical, absorbance readout, ultra-high-throughput screen actives (AID 540297); type: functional
T1 sequence (Q9GZU7 whole entry): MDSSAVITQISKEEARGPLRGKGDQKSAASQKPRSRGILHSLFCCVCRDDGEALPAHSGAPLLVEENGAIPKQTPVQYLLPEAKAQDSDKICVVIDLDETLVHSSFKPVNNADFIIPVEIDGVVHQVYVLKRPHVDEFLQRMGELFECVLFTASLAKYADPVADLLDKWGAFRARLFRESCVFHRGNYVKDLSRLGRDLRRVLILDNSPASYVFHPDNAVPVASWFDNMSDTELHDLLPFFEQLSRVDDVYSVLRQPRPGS

[8] = Luminescence Cell-Based Dose Retest to Confirm Inhibitors of Cancer Stem Cells. [Related pubchem assays (depositor defined):AID2717, AID2721]; type: functional; settings: Homo sapiens
[9] = molecular target: T2, DNA repair protein RAD52 homolog (Homo sapiens, UniProt P43351); type: functional, biochemical
T2 sequence (P43351 whole entry): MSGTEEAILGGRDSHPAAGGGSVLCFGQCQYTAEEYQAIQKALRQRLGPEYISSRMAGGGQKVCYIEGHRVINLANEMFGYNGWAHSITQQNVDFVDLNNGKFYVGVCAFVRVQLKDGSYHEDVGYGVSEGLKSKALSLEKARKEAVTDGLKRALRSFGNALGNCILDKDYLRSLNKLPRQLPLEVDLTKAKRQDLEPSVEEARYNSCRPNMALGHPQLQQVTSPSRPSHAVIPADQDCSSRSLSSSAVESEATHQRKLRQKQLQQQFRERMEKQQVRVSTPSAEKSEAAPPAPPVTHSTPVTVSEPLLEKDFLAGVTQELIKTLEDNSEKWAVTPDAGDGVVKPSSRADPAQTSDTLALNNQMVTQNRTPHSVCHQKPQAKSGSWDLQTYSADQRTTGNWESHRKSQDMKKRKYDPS

[10] = NIH3T3 cell viability loss – ATP luminescence, mouse fibroblasts, counter-screen, dose response (AID 2010); type: functional, cell-based;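 further: cells exposed to compound for about 90 hours before reading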
[11] = Trypanosoma cruzi growth suppression in host cells – NIH3T3 host cells, beta-gal luminescence, confirmation (AID 2044); type: functional, cell-based;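 further: intracellular parasites grown in NIH/3T3 mouse fibroblasts as host cells; luminescent beta-galactosidase reporter signal from transgenic T. cruzi replicating inside host cells; inhibitors lower the luminescence signal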
[12] = molecular target: T3, Ubiquitin-conjugating enzyme E2 N (Homo sapiens, UniProt P61088); type: functional;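 further: Dose-response confirmation in a TR-FRET assay detecting UBC13-driven polyubiquitin chain formation, inhibition measured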
T3 sequence (P61088 whole entry): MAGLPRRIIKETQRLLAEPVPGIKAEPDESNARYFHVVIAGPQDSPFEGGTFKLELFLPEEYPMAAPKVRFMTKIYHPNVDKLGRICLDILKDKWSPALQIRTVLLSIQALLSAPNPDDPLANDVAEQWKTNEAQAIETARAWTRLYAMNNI

[13] = molecular target: T4, Streptokinase A (Streptococcus pyogenes serotype M1, UniProt P10520); experiment: viability-normalized secreted streptokinase activity reduction – plasminogen activation absorbance, OD405, dose response (AID 1914); type: functional, Streptococcus pyogenes M1 GAS;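 further: secreted streptokinase activity via plasminogen activation per viability signal from cell pellet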
T4 sequence (P10520 whole entry): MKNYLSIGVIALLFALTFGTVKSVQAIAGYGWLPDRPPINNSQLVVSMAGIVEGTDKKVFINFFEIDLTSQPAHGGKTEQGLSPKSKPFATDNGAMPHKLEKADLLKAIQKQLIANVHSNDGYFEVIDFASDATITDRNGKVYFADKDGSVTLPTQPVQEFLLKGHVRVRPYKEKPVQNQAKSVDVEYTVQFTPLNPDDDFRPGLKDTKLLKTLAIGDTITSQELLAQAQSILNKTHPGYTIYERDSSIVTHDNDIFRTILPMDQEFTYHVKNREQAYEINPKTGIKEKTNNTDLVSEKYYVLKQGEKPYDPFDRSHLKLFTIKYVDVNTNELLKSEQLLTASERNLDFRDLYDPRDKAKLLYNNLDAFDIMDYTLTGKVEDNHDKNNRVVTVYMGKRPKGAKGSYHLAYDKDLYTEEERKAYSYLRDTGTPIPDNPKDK

[14] = tested on: Streptococcus; experiment: GAS UMAA2166 growth inhibition – luminescence, BacTiterGlo, counter-screen for streptokinase expression inhibitor project, dose response (AID 1915); type: functional, organism-based;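 further: potency for reduction of bacterial viability or growth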
[15] = molecular target: T5, Replicative DNA helicase DnaB (Mycobacterium tuberculosis, UniProt P9WMR3); experiment: DnaB intein splicing inhibitors, dose response, biochemical, cell-free fluorescence (AID 449749); type: functional
T5 sequence (P9WMR3 whole entry): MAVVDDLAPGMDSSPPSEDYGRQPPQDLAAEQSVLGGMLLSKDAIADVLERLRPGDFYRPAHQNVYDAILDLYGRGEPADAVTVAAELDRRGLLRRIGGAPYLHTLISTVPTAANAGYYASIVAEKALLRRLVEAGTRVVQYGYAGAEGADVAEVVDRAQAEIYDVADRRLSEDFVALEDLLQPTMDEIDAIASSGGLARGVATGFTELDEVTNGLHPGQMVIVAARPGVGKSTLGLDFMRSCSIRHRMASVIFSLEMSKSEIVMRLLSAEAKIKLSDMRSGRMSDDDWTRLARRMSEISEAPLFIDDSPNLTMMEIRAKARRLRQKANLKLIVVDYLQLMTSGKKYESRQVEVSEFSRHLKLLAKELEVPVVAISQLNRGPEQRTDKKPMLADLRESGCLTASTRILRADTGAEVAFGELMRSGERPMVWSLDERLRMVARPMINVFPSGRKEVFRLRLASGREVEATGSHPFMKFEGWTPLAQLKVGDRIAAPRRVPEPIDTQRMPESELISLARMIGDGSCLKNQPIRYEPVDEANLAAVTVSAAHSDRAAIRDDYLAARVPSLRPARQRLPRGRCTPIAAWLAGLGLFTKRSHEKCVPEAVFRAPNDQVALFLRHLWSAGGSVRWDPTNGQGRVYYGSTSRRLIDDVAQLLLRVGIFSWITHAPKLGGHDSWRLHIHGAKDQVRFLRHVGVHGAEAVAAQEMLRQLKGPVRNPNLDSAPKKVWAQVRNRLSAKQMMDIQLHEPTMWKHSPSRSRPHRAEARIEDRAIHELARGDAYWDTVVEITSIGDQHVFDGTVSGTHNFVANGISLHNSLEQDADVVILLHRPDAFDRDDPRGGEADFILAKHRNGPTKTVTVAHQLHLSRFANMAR

[16] = molecular target: T6, Protein RecA (Mycobacterium tuberculosis, UniProt P9WHJ3); experiment: Fluorescence Cell-Free Homogeneous Dose Retest to Identify Inhibitors of RecA-Intein Splicing Activity. [Related pubchem assays (depositor defined):AID2097, AID2223, AID489010, AID492950]; type: functional
T6 sequence (P9WHJ3 whole entry): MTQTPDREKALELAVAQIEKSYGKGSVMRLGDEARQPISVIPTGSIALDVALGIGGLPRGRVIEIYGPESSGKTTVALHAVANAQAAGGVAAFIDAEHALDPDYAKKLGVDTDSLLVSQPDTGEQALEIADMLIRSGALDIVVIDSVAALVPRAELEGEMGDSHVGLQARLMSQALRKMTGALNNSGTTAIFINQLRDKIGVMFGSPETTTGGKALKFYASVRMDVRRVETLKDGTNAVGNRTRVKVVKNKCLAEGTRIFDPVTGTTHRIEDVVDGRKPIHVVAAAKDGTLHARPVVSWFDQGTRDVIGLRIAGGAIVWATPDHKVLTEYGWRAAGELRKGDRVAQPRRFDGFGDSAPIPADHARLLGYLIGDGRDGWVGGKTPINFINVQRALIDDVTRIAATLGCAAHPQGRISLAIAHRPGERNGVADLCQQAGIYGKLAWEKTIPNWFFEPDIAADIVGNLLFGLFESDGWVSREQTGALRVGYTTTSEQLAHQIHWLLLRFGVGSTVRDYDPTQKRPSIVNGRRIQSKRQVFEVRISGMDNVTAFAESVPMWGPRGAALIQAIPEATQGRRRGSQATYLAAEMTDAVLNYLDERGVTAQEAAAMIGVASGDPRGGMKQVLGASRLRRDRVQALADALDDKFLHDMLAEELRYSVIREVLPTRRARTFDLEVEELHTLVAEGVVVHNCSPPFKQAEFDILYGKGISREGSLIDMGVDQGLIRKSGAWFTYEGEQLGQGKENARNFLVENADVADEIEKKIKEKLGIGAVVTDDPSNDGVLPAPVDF

[17] = tested on: Streptococcus sp. 'group A'; experiment: Streptococcus pyogenes SK(-)GAS viability under kanamycin – luminescence, BacTiterGlo, confirmation, counter-screen for streptokinase expression inhibitor project, dose response (AID 1900); type: functional, organism-based
[18] = molecular target: Nonstructural protein 1 (Influenza A virus, UniProt Q194T2); type: functional, Influenza A virus (A/California/07/2009(H1N1))
[19] = tested on: P388/ADR; experiment: cells; type: functional; settings: Mus musculus
[20] = tested on: SN12K1; experiment: cells; type: functional; settings: Homo sapiens
[21] = intracellular Trypanosoma cruzi inhibitors in host cells – cell-based, plate reader, cherry-pick samples, set 3, dose response (AID 651818); type: functional;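 further: compounds incubated with infected cells for about four days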
[22] = blockers of HIV-1 envelope-mediated cell-cell fusion – cherry-pick, dose response (AID 652057); type: functional, cell-based
[23] = HIV-1 AD8 envelope cell-cell fusion blockers – cherry-pick, dose response (AID 652062); type: functional, cell-based;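 further: luciferase signal from cell-cell fusion driven by HIV-1 clade B AD8 Env; potency is for inhibitors of fusion seen as a drop in luminescence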
[24] = blockers of HIV-1 ZM109 envelope-driven cell-cell fusion – HeLa effector, CEM target cells, luciferase, cherry-pick, dose response (AID 652058); type: functional, cell-based;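 further: luciferase signal from HIV-1 Env mediated cell-cell fusion of effector and target cells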

Sequence of Ras and Rab interactor 1/Tyrosine-protein kinase ABL1 (P00519 whole entry): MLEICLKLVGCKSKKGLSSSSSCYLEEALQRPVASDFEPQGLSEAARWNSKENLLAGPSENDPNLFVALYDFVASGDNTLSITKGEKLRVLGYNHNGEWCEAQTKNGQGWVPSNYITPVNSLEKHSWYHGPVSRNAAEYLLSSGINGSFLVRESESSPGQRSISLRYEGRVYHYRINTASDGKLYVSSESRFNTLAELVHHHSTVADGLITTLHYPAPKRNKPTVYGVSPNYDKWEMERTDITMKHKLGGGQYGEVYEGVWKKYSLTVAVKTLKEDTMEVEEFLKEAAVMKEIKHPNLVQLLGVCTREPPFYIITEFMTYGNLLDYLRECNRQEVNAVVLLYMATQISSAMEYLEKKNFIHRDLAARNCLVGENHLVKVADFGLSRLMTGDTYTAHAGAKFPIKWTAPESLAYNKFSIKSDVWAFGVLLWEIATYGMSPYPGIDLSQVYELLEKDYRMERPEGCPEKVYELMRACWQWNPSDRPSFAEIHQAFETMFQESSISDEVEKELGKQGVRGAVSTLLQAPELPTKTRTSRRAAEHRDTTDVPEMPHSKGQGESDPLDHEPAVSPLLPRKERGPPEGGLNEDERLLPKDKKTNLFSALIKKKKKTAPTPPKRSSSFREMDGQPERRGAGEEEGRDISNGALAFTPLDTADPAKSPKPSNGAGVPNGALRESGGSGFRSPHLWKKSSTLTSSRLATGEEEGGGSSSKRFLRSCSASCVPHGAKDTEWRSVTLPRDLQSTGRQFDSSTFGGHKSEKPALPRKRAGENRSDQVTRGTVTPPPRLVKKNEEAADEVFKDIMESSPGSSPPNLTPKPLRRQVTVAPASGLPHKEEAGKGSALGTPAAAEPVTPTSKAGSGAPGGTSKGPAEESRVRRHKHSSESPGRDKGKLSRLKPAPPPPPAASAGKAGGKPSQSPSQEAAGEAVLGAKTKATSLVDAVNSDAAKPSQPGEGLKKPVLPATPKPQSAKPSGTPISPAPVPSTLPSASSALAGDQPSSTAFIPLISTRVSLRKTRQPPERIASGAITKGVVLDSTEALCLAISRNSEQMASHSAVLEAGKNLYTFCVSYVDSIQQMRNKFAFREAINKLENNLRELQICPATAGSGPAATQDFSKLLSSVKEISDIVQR
Sequence of Ras and Rab interactor 1/Tyrosine-protein kinase ABL1 (Q13671 whole entry): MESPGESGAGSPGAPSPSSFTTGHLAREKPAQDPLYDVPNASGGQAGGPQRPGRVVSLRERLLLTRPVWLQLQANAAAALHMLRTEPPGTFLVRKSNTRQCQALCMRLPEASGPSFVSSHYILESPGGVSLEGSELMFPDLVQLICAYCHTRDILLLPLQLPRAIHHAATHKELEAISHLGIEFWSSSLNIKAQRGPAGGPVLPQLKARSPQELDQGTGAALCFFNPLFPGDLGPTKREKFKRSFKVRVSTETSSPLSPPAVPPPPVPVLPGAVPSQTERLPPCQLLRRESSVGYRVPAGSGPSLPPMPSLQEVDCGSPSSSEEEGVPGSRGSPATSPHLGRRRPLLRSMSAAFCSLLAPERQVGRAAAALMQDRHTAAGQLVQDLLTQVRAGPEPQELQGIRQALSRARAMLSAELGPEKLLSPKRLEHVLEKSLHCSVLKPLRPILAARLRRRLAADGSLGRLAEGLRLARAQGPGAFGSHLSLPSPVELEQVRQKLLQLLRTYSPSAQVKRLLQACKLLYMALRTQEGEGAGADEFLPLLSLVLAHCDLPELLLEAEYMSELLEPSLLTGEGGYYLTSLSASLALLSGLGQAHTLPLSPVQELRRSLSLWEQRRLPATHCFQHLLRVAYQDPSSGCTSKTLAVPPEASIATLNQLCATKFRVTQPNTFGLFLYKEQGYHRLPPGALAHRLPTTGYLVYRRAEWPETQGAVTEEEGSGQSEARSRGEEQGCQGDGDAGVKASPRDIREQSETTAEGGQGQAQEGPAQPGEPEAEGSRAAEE
Sequence of Nonstructural protein 1 (Q194T2 whole entry): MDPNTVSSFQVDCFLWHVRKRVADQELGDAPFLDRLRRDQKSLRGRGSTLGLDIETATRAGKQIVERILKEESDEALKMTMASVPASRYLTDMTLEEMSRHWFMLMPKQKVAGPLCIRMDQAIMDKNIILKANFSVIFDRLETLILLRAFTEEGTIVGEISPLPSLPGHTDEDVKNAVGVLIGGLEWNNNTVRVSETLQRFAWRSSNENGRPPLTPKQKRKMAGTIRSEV

COc1ccc2nc(NC(=O)CCc3nc(C4=CCN(C)CC4)no3)sc2c1
IC50 [1]: 1.4 µM (active)

C=CCNc1nc(-c2cc3ccccc3o2)cs1
AC50 [2]: 15.2 µM (active) | AC50 [3]: 13.9 µM (active)

COC(=O)c1c(C)nc(C)c2c(=O)oc3ccccc3c12
IC50 [1]: > 73.5 µM (inactive)

COCCn1c(SCC(=O)/C=C2\N(C)c3ccccc3C2(C)C)nnc1-c1ccncc1
AC50 [4]: 5.61 µM (active) | AC50 [5]: 2.65 µM (active) | AC50 [6]: 6.34 µM (active)

Cc1ccc(Cl)cc1N1CCN(C(=O)CSc2ccsc2[N+](=O)[O-])CC1
IC50 [7]: 6.96 µM (active)

CCN1CCN(CCCNC(=O)c2ccc(/C=C3/Sc4ccccc4N(Cc4ccccc4F)C3=O)cc2)CC1
AC50 [8]: 2.41 µM (active) | AC50 [9]: 8.67 µM (active) | EC50 [10]: 22.8 µM (active) | EC50 [11]: 1.07 µM (active) | IC50 [12]: > 20 µM (inactive)

O=C(COC(=O)c1cccc(S(=O)(=O)N2CCN(c3ccccc3)CC2)c1)NCc1ccco1
IC50 [7]: 4.41 µM (active)

CC(=O)Nc1ccc(S(=O)(=O)NC2=NC(=O)/C(=C\c3ccco3)S2)cc1
IC50 [7]: 7.44 µM (active)

NC(=O)C(CC(=O)O)NC(=O)[C@@H]1CCCNc2c(I)cc([N+](=O)[O-])cc2C(=O)N[C@@H](CO)C(=O)N[C@@H](Cc2ccc(O)cc2)C(=O)N1 (stereo partly specified)
IC50 [7]: 19.7 µM (active)

O=C1N(c2cccc(Cl)c2)C(c2ccc(Cl)cc2)N2CCCN12 (stereo unspecified)
IC50 [1]: 31.8 µM (inactive)

O=C(Cc1ccc(S(=O)(=O)N2CCOCC2)s1)NC1CCCCC1
IC50 [7]: 7.34 µM (active)

CCOC(=O)C1=C(C)n2c(s/c(=C/c3cccc([N+](=O)[O-])c3)c2=O)=NC1c1ccc(O)c(OC)c1 (stereo unspecified)
EC50 [13]: 48.8 µM (active) | EC50 [14]: > 150 µM (not active) | AC50 [15]: 13.1 µM (active) | EC50 [16]: 1.29 µM (active) | EC50 [17]: 8.14 µM (active) | EC50 [10]: > 60 µM (not active) | EC50 [11]: 1.11 µM (active) | IC50 [18]: > 100 µM (active)

O=C1N(c2cccc(Cl)c2)C(c2ccccc2)N2CCCN12 (stereo unspecified)
IC50 [1]: 22.2 µM (inactive)

COc1ccc(-c2cc(NC=O)c3ncc(-c4cccc(C(=O)NCCN(C)C)c4)n3c2)c(OC)c1
AC50 [9]: 2.55 µM (active)

CN(CCc1ccccc1)C(=O)c1ccc(NC(=O)Cc2ccc(NC(=O)C3CCN(C(=O)c4ccccc4)CC3)cc2)cc1
IC50 [1]: 3.91 µM (active)

O=C1C=C[C@@H](COC2OC(CO)C(O)C(O)C2O)O1 (stereo partly specified)
GI50 [19]: 0.343 µM (active) | GI50 [20]: 13.2 µM (inactive)

CCN(CC)c1ccc(/C=N/NC(=O)CCCCCCC(=O)Nc2ccccc2O)c(O)c1
AC50 [21]: 1.94 µM (active)

C[C@@H]1CCCCO[C@@H](CN(C)C(=O)Nc2ccc(C(F)(F)F)cc2)[C@@H](C)CN([C@H](C)CO)C(=O)c2cc(NC(=O)NC3CCCCC3)ccc2O1
AC50 [21]: 5.12 µM (active)

C[C@H](CO)N1C[C@H](C)[C@H](CN(C)C(=O)Nc2ccccc2)Oc2c(NC(=O)c3ccncc3)cccc2C1=O
AC50 [21]: 2.12 µM (active)

C[C@H](CO)N1C[C@H](C)[C@H](CN(C)Cc2ccc(-c3ccccc3)cc2)Oc2ccc(NC(=O)CCCCCC(=O)Nc3ccccc3N)cc2CC1=O
AC50 [21]: 3.39 µM (active)

C[C@H]1CN([C@@H](C)CO)C(=O)Cc2cc(NC(=O)Cc3ccccc3)ccc2O[C@H]1CN(C)S(=O)(=O)c1ccccc1
AC50 [22]: 1.62 µM (active) | AC50 [23]: 7.88 µM (active) | AC50 [24]: 1.6 µM (active)

C[C@H](CO)N1C[C@H](C)[C@H](CN(C)S(=O)(=O)c2ccccc2)Oc2ccc(NC(=O)Cc3cn(C)c4ccccc34)cc2CC1=O
AC50 [22]: < 0.26 µM (active) | AC50 [23]: 12 µM (active) | AC50 [24]: 0.816 µM (active)
